Columns and labels:
[1] = tested on: psoriasis lesions on the calves of both legs; experiment: Treatment of psoriasis in a patient; format: in vivo, human; settings: one patient
Text: A patient diagnosed with psoriasis having lesions on the calves of both legs underwent the following treatment:
• FAGRON: galenic preparation (0.05% clobetasol propionate, 10% urea in occluvan q.s. to 100%)

[2] = tested on: human keratinocytes (HACAT cell line); experiment: In vitro wound healing model, scratched keratinocyte monolayer; format: cell-based; settings: 50 μM MT8, compared to control medium
Method: To evaluate whether MT8 is able to induce faster healing of injured human keratinocytes (HACAT cell line) monolayers, an in vitro “wound healing” model was used. HACAT cells were seeded in 6-well culture dishes and grown to 90%-95% confluency. A standardized wound was created by scratching the HACAT cell monolayer with a sterile micropipette tip under an inverted microscope. Then, the cells were washed with PBS and treated with 50 μM MT8 or 4 nM NGF, and images of the wound healing process were recorded at different time points.

skin lesions / wounds = experiment: Topical treatment of skin lesions and wounds in patients (Examples 19-29); format: in vivo, human; settings: topical application
Text: Inoperable antibiotic multi-resistance. […] The jagged edges of the lesion are erythematous and infected. The periwound skin is erythematous and edematous, with erythema extending to the malleolar area. The lesion is lightly exuding, with foul-smelling, serous exudate. Contaminated/infected wound. When changing the dressing, the pain expressed is equal to 8 (VAS pain scale); there is still discomfort and sometimes pain even when the dressing is not changed. Complex wound due to comorbidities. • Treatment with Udonitrectag: Wound cleaning performed with sterile saline solution (0.9% sodium chloride) and Microdacyn, followed by Urgotul and finally 1% Udonitrectag gel-cream, covered with a light dressing; 2 dressing changes per week for a total of 5 dressings with 1% Udonitrectag gel-cream.

[3] = tested on: Human Umbilical Vein Endothelial Cells (HUVECs); experiment: In vitro AGE-induced endothelial dysfunction, ATP content by CellTiter Glo; format: cell-based; settings: 20 µM MT8; HUVECs on ECM-AGE-coated plates, 4 days
Method: BSA-AGE and ECM-AGE were produced by Maillard reaction and Amadori rearrangement and used to evaluate oxidative stress and apoptosis process induced by AGEs in endothelial cell cultures.
To evaluate whether MT8 is able to counteract AGE-induced endothelial cell dysfunction, Human Umbilical Vein Endothelial Cells (HUVECs) were seeded on ECM-AGE-coated plates and incubated with complete growth medium, in the presence or absence of 20 µM MT8, or 2 nM NGF+2 nM BDNF for 4 days. The cells were then lysed with 100 µL of CellTiter Glo, which allows for ATP release from the cells. The ATP content (directly proportional to cell viability) was measured by luciferase assay.

male C57BL/6 mice = experiment: In vivo model of androgenetic alopecia (DHT-injected mice); settings: Udonitrectag 100 μM in PBS, topical twice a day for 2 weeks; vs vehicle
Method: Udonitrectag was studied in an in vivo model of androgenetic alopecia.
For this purpose, male C57BL/6 mice were shaved with an animal clipper at 8 weeks of age, when all follicles are in the telogen phase. After depilation, 4 mg of DHT (dissolved in 100 μL of ethanol) were injected subcutaneously into the back of each animal. The mice were then divided into two groups: vehicle-treated and treated with Udonitrectag 100 μM in PBS. Udonitrectag 100 μM solution, or vehicle (PBS only) were applied topically twice a day for 2 weeks and hair growth was recorded at the beginning and at the end of treatment.

With “(1S,4R,5R,7S)-3,4-dibenzyl-2-oxo-6,8-dioxa-3-azabicyclo[3.2.1]octane-7-carboxylic acid lysine salt [Udonitrectag]” the “psoriasis status at skin examination two years after the end of the treatment” value ([1]; left and right leg, both legs last treated with Udonitrectag 0.5% gel-cream) was “completely healed”, the “improvement of psoriatic lesions during treatment” value ([1]; topical, Udonitrectag as 0.5% gel-cream, regimen per leg over days 1-30) was “produced visible improvements in the lesions” and the “wound repair process (wound distances as a function of time)” value [2] was “induces a faster repair process”. For the same substance, the “healing of skin lesions incurable with other treatments (FIGS. 6-16)” value (skin lesions / wounds) was “healing of severe skin lesions”, the “endothelial cell viability (ATP content)” value [3] was “able to maintain endothelial cell viability” and the hair regrowth (male C57BL/6 mice) was “induces hair regrowth much faster and more intensively than vehicle treatment”.
